Laboratory results reported in patent US20220378744A1, “COMPOUNDS FOR TREATING PROLIFERATOR-ACTIVATED RECEPTORS (PPAR) MEDIATED DISEASES OR CONDITIONS” (MEDIPURE PHARMACEUTICALS INC., priority 2021, published 2022).

Columns and labels:
[1] = tested on: IMQ-induced psoriasis in BALB/c mice; assay: IMQ-induced psoriasis model in BALB/c mice, topical creams, PASI score; assay type: in vivo; conditions: for tolerability in mice / visual damage on the skin: topical, seven-day consecutive treatment; for tolerability in mice: even at 10% creams; for visual damage on the skin: up to 10% creams
Experimental: The animal experiment is conducted in accordance with the Guidelines for the Institutional Animal Care and Use Committee. Both male and female BALB/c mice from Rodenta Bioserve, India, at 7-8 weeks of age and 20-25 gram of body weight are housed in a laboratory environment with constant temperature (24.0±1.0° C.) and relative humidity (45.0-55.0%) on a 12 h light/dark cycles. These animals are provided free access to unlimited amounts of food and water during the entire experiment. The animals are divided into 12 groups of 8 mice each and shaved on the back on day 0 for an area of 2×2 cm . Human-like psoriasis in mice is induced by topical application of 5% Imiquimod (IMQ) procured from AK Scientific, USA, and formulated in the base cream at desired percentages in-house, in shaved area and right ear (0.5×0.5 cm). […] Vehicle, clobetasol propionate (CP, Sigma. 0.05% w/w; positive control), test creams, and CBD (Ilesol Pharmaceuticals), respectively, is applied topically on both the shaved back (80 mg cream) and the right ear (20 mg cream) of mice, once daily from day 10 to day 16. The study ends at day 17. At stated time points the severity of psoriasis is evaluated using the PASI score (Psoriasis Area Severity Index: sum of erythema, scaling and thickening, scored independently from 0 to 4 for each mouse; max PASI score=12). Tissue and blood samples are collected for histopathology, biochemistry and immunoassay from each animal at various points.

[2] = tested on: TNFα/IL-17A-stimulated HaCaT cells; assay: Anti-inflammatory effect of combined test compounds (Abn-CBD/CBD and PPAR agonists) in TNFα/IL-17A-stimulated HaCaT cells; assay type: cell-based, human
Experimental: HaCaT cells were maintained as described above in DMEM high glucose (4.5 g/L) medium supplemented with 10% FBS and 1% (v/v) penicillin/streptomycin solution (Invitrogen, Thermo Fisher) and kept in an incubator at 37° C. with 5% CO2. For experiments the cells were seeded at 5×10^4 cells/well in 0.5 mL of medium to a 24-well culture plate (Nunc, Thermo Fisher) and incubated overnight. The old medium in the culture plates was discarded and the corresponding stimulant, TNFα/IL-17A (R&D Systems) at 2 ng/mL each, with or without test chemicals in 0.5 mL of fresh medium was added to each cell well in the plate. There were duplicate wells for each treatment. The plate was incubated for another 24 h and the supernatant was collected for cytokine analysis, namely IL-6 and IL-8, using ELISA kits (Thermo Fisher).

[3] = target: T1, human PPARα (NR1C1) (Homo sapiens, UniProt Q07869); assay: Cell-based human PPARα transactivation (nuclear receptor reporter) assay; conditions: luciferase reporter cells, 24 h treatment, FIG. 1
T1 sequence (Q07869 1-468): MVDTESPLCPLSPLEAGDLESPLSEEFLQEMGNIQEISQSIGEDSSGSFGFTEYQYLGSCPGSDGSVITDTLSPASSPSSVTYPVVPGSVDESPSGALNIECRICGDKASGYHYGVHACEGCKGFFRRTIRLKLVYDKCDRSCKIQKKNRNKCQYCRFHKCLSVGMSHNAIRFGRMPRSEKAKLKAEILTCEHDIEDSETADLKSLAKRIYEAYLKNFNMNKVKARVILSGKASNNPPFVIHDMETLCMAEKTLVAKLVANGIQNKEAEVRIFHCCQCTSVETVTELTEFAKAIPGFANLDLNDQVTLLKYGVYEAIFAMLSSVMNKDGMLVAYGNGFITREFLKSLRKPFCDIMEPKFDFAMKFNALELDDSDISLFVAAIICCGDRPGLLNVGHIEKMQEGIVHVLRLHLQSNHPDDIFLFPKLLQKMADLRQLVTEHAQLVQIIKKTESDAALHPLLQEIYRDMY
Experimental: (§1) The assay was performed using cell-based human PPAR nuclear receptor reporter assay kits (NR1C1 for PPARα; NR1C2 for PPARδ/β, and NR1C3 for PPARγ, Indigo Biosciences) by following the manufacturer's instruction. In brief, PPAR reporter cells were added to CRM medium (Indigo Biosciences), seeded into wells of a 96-well culture plate and incubated for 5 hours in a cell culture incubator at 37° C. with 5% CO2. The medium was then removed, and the cells were treated with test compounds at different concentrations in CSM medium (Indigo Biosciences) for 24 h inside the incubator. […] DMSO (Sigma) at 0.1% (v/v) was used as negative baseline control (C). Each treatment was tested in duplicate wells. At the end point of the experiments, the treatment medium was discarded and Luciferase Detection Reagent (Indigo Biosciences) was added. Following a 10-minute rest period, the intensity of light emission (in units of “Relative Light Units; RLU”) from each assay well was quantified using a plate-reading luminometer (Synergy H1 plate reader, BioTek). In addition, live cell multiplex assay (Indigo Biosciences) was combined with the activation assays to detect potential cytotoxic effect, if any, of the test chemicals to normalize the signals as per manufacturer's instruction.

[4] = tested on: LPS-stimulated HaCaT cells; assay: Anti-inflammatory effect, LPS-stimulated HaCaT cell model (IL-6, IL-8 ELISA); assay type: cell-based, human; conditions: LPS 20 μg/mL, 24 h; for reduction of IL-8 production compared with rosiglitazone and fenofibrate: 25 μM; for production of IL-6: compound at 25 uM
Experimental: (§2) Three in vitro models based on HaCaT cell culture were tested. HaCaT cells were maintained as described above in DMEM high glucose (4.5g/L) medium supplemented with 10% FBS and 1% (v/v) penicillin/streptomycin solution (Invitrogen, Thermo Fisher) and kept in an incubator at 37° C. with 5% CO2. For experiments, the cells were seeded at 5×10^4 cells/well in 1 mL of medium to a 24-well culture plate (Nunc, Thermo Fisher) and incubated overnight.
(§3) (1) For the imiquimod (IMQ)-stimulated HaCaT model, IMQ (Alfa Aesar) at 50 μM final concentration was used in the experiments; (2) for TNFα/IL-17A-stimulated-HaCaT model, 2 ng/mL of each cytokine (R&D Systems) was used; and (3) for the lipopolysaccharide (LPS, Sigma) simulated HaCaT cell model, 20 μg/mL LPS was used. For drug chemical treatment the old medium in the culture plates described above was discarded and the corresponding stimulant (IMQ, TNFα/IL-17A, or LPS) with or without test chemicals in 0.5 mL fresh medium was added to each cell well. There were duplicate wells for each treatment. The plate was incubated for another 24 h and the supernatant was collected for cytokine analysis, namely IL-6 and IL-8, using the corresponding ELISA kits (Thermo Fisher). The experiments were repeated independently to confirm the observation.

[5] = tested on: IMQ-stimulated HaCaT cells; assay: Anti-inflammatory effect, IMQ-stimulated HaCaT cell model (IL-6, IL-8 ELISA); assay type: cell-based, human; conditions: IMQ 50 μM, 24 h, vs control
Experimental: as §2
as §3, with “Fisher).” for “Fisher). The experiments were repeated independently to confirm the observation.”

[6] = target: T2, human PPARγ (NR1C3) (Homo sapiens, UniProt P37231); assay: Cell-based human PPARγ transactivation (nuclear receptor reporter) assay; conditions: FIG. 3
T2 sequence (P37231 1-505): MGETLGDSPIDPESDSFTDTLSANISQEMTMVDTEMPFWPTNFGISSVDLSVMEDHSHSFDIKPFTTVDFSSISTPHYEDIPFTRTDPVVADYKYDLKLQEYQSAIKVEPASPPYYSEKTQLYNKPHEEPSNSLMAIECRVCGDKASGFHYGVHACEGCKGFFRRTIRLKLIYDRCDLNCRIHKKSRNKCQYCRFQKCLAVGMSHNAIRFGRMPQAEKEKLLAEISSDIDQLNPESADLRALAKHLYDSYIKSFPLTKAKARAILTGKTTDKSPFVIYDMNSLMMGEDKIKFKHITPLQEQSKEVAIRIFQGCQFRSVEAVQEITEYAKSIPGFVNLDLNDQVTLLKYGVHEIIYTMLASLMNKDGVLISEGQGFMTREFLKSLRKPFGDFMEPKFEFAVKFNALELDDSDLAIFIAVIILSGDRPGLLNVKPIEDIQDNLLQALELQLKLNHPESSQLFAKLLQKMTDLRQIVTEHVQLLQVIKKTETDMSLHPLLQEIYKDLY
Experimental: as §1

[7] = target: T3, human PPARδ/β (NR1C2) (Homo sapiens, UniProt Q03181); assay: Cell-based human PPARδ/β transactivation (nuclear receptor reporter) assay; conditions: at tested concentrations
T3 sequence (Q03181 1-441): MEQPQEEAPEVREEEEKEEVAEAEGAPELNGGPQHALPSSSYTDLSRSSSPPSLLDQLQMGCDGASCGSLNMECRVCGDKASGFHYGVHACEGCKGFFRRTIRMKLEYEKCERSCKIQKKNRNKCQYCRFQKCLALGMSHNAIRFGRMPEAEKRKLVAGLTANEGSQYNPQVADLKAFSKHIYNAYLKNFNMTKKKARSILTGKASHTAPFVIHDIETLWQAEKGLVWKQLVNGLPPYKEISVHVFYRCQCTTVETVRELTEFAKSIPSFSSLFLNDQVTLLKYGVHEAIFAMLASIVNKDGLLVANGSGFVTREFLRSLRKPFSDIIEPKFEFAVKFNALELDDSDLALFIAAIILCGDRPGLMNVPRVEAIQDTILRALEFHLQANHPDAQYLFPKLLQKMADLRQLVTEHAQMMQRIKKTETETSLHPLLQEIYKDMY
Experimental: as §1

[8] = initial studies, range 1 to 30 μM, HaCaT model
[9] = creams at 1% and 5%, once daily day 10 to day 16, FIG. 11

SMILES	tolerability in mice [1]	visual damage on the skin [1]	PPARα transactivation: concentration at which (or starting at which) active [3]	production of IL-6 ([5]; compound at 2.5 μM)	production of IL-6 ([5]; compound at 25 μM)	further results
C=C(C)[C@@H]1CCC(C)=C[C@H]1c1c(O)cc(CCCCC)cc1O [CBD, cannabidiol, reference compound]	well tolerated	No visual damage				HaCaT growth ([2]; at higher concentrations, e.g. 30 μM): inhibit HaCaT growth; production of IL-6 [2, 8]: reduced; production of IL-8 [2, 8]: reduced
CCC(=O)O[C@]1(C(=O)CCl)[C@@H](C)C[C@H]2[C@@H]3CCC4=CC(=O)C=C[C@]4(C)[C@@]3(F)[C@@H](O)C[C@@]21C [CP, clobetasol propionate, reference compound]						reducing the PASI score ([1]; 0.05% w/w cream, once daily day 10 to day 16, FIG. 11): effective
CCCc1cc(C(=O)c2ccc(-c3ccccc3)cc2)ccc1OCCCOc1ccc2c(cnn2CC(=O)O)c1 [MP-151, 2-(5-(3-(4-([1,1′-biphenyl]-4-carbonyl)-2-propylphenoxy)propoxy)-1H-indazol-1-yl)acetic acid]	well tolerated	No visual damage	5 µM	significantly inhibited	significantly inhibited	reduction of IL-8 production compared with rosiglitazone and fenofibrate [4]: more active; production of IL-6 [4]: reduced
CCCc1cc(C(=O)c2ccc(F)cc2)ccc1OCCCOc1ccc2c(cnn2CC(=O)OC)c1 [MP-152, methyl 2-(5-(3-(4-(4-fluorobenzoyl)-2-propylphenoxy)nropoxy)-1H-indazol-1-yl)acetate]	well tolerated	No visual damage	1 µM	significantly inhibited	significantly inhibited	reducing the PASI score compared with CP [1, 9]: more effective than CP; reducing the PASI score, rank among the treatment groups [1, 9]: most active; reduction of IL-8 production compared with rosiglitazone and fenofibrate [4]: more active; production of IL-6 [4]: reduced; PPARγ transactivation: concentration at which (or starting at which) active [6]: 1,000 nM
CCCc1cc(C(=O)c2ccc(-c3ccccc3)cc2)ccc1OCCCOc1ccc2c(cnn2CC(=O)OC)c1 [MP-153, methyl 2-(5-(3-(4-([1,1′-biphenyl]-4-carbonyl)-2-propylphenoxy)propoxy)-1H-indazol-1-yl)acetate]			5 µM	significantly inhibited	significantly inhibited	
CCCc1cc(C(=O)c2ccc(F)cc2)ccc1OCCCOc1ccc2c(cnn2CC(=O)O)c1 [MP-154, 2-(5-(3-(4-(4-fluorobenzoyl)-2-propylphenoxy)propoxy)-1H-indazol-1-yl)acetic acid]			1 µM	no anti-inflammatory effect	significantly inhibited	PPARγ transactivation: concentration at which (or starting at which) active [6]: 1,000 nM
CSc1ccc(C(=O)/C=C/c2cc(C)c(OC(C)(C)C(=O)O)c(C)c2)cc1 [elafibranor]						PPARδ/β transactivation activity [7]: showed activities
